Test: molar heat capacity at constant pressure
Details: Liquid, Small sample (50 mg) DSC

CCCCCCn1cc[n+](C)c1.F[B-](F)(F)F [1-hexyl-3-methylimidazolium tetrafluoroborate]
molar heat capacity at constant pressure [J/K/mol]
Details | 283.15 K | 288.15 K | 293.15 K | 298.15 K | 303.15 K | 308.15 K | 313.15 K | 318.15 K | 323.15 K
100 kPa | 422.77 | 425 | 427.34 | 429.8 | 432.36 | 435.03 | 437.81 | 440.7 | 443.69
2000 kPa | 422.81 | 425.04 | 427.38 | 429.83 | 432.39 | 435.06 | 437.84 | 440.72 | 443.72
4000 kPa | 422.85 | 425.08 | 427.42 | 429.87 | 432.43 | 435.1 | 437.87 | 440.75 | 443.74
6000 kPa | 422.89 | 425.12 | 427.46 | 429.91 | 432.47 | 435.13 | 437.9 | 440.78 | 443.77
8000 kPa | 422.94 | 425.17 | 427.5 | 429.95 | 432.5 | 435.17 | 437.93 | 440.81 | 443.8
10000 kPa | 422.98 | 425.21 | 427.54 | 429.99 | 432.54 | 435.2 | 437.97 | 440.84 | 443.82
12000 kPa | 423.02 | 425.25 | 427.59 | 430.03 | 432.58 | 435.23 | 438 | 440.87 | 443.85
14000 kPa | 423.07 | 425.29 | 427.63 | 430.07 | 432.61 | 435.27 | 438.03 | 440.9 | 443.88
20000 kPa | 423.2 | 425.42 | 427.75 | 430.18 | 432.72 | 435.37 | 438.13 | 440.99 | 443.96
30000 kPa | 423.41 | 425.63 | 427.95 | 430.38 | 432.91 | 435.55 | 438.29 | 441.14 | 444.09
40000 kPa | 423.63 | 425.84 | 428.15 | 430.57 | 433.09 | 435.72 | 438.45 | 441.28 | 444.22
50000 kPa | 423.85 | 426.05 | 428.36 | 430.77 | 433.28 | 435.89 | 438.61 | 441.43 | 444.35
60000 kPa | 424.07 | 426.26 | 428.56 | 430.96 | 433.46 | 436.07 | 438.77 | 441.58 | 444.49

CCCCCCCC[n+]1ccn(C)c1.F[B-](F)(F)F [1-methyl-3-octylimidazolium tetrafluoroborate]
molar heat capacity at constant pressure [J/K/mol]
Details | 283.15 K | 288.15 K | 293.15 K | 298.15 K | 303.15 K | 308.15 K | 313.15 K | 318.15 K | 323.15 K
100 kPa | 489.23 | 493.12 | 496.79 | 500.26 | 503.51 | 506.55 | 509.38 | 512 | 514.41
2000 kPa | 489.23 | 493.12 | 496.79 | 500.25 | 503.5 | 506.55 | 509.38 | 512 | 514.41
4000 kPa | 489.23 | 493.12 | 496.79 | 500.25 | 503.5 | 506.54 | 509.37 | 512 | 514.41
6000 kPa | 489.24 | 493.11 | 496.78 | 500.24 | 503.5 | 506.54 | 509.37 | 512 | 514.41
8000 kPa | 489.24 | 493.11 | 496.78 | 500.24 | 503.49 | 506.53 | 509.37 | 512 | 514.41
10000 kPa | 489.24 | 493.11 | 496.78 | 500.24 | 503.49 | 506.53 | 509.37 | 511.99 | 514.41
12000 kPa | 489.24 | 493.11 | 496.78 | 500.23 | 503.48 | 506.53 | 509.36 | 511.99 | 514.42
14000 kPa | 489.24 | 493.11 | 496.77 | 500.23 | 503.48 | 506.52 | 509.36 | 511.99 | 514.42
20000 kPa | 489.24 | 493.11 | 496.76 | 500.22 | 503.47 | 506.51 | 509.35 | 511.99 | 514.42
30000 kPa | 489.25 | 493.1 | 496.75 | 500.2 | 503.45 | 506.49 | 509.34 | 511.98 | 514.43
40000 kPa | 489.26 | 493.09 | 496.73 | 500.18 | 503.42 | 506.47 | 509.32 | 511.98 | 514.44
50000 kPa | 489.26 | 493.09 | 496.72 | 500.16 | 503.4 | 506.45 | 509.31 | 511.97 | 514.44
60000 kPa | 489.27 | 493.08 | 496.7 | 500.14 | 503.38 | 506.43 | 509.3 | 511.97 | 514.45

Reference: the NIST ThermoML archive (doi:10.1021/je9004992)
